Consider 8 compounds from patent US10105357B2, “Indication of antibiotic drugs for preparation of cancer inhibition pharmaceutical composition” (LAUNX BIOMEDICAL CO., LTD., priority 2014, dated 2018).

Structures are written as SMILES. Structures can show the parent of a compound that is named as a salt. Where two headings read alike, the source gives them in different places.

Holding throughout (format): cell-based, human
For one assay, the system named is cancer cell lines. The experiment in a line: Cell viability analysis (WST-1) on cancer cell lines. The conditions noted are these: drug 10 μM, 72 hours, WST-1; Table 3. For orientation: Tetrazolium dyes change colour on reduction, which living cells bring about.
The subject of assay [1] is HI650 (Lung Adenocarcinoma). The experiment in a line: Cell viability analysis, lung cancer HI650. Conditions: Homo sapiens.
In assay [2] the test system is A549 (Lung Adenocarcinoma). The experiment in a line: Cell viability analysis, lung cancer A549. The conditions noted are these: Homo sapiens.
The subject of assay [3] is AGS (Gastric Adenocarcinoma). Put plainly: Cell viability analysis, gastric cancer AGS. The conditions noted are these: Homo sapiens.
For assay [4], the system named is MKN-45 (Gastric Adenocarcinoma). Put plainly: Cell viability analysis, gastric cancer MKN-45. Conditions: Homo sapiens.
For assay [5], the system named is HepG2 (Hepatocellular Carcinoma). The experiment in a line: Cell viability analysis, hepatic cancer HepG2. Conditions: Homo sapiens.
The test system of assay [6] is LoVo (Colorectal Adenocarcinoma). Put plainly: Cell viability analysis, colon cancer LoVo. Conditions: Homo sapiens, LoVo, 72 h, read-out: cell viability (survival rate), LoVo, drug 10 μM, 72 hours, WST-1, OD450 nm.
Assay [7] concerns A375 (Amelanotic Melanoma). The experiment in a line: Cell viability analysis, skin cancer A375. The conditions noted are these: Homo sapiens.
For assay [8], the system named is HeLa (Cervix Adenocarcinoma). Put plainly: Cell viability analysis, cervical cancer HeLa. Conditions: Homo sapiens, HeLa.
In assay [9] the test system is PC3 (p53−) (Prostate Adenocarcinoma). The experiment in a line: Cell viability analysis, prostate cancer PC3. The conditions noted are these: Homo sapiens.
For assay [10], the system named is MCF7 (Mammary Gland, Adenocarcinoma). Put plainly: Cell viability analysis, breast cancer MCF7. Conditions: Homo sapiens, MCF7, 72 h.
Assay [11] relates to HL-60 (Acute Promyelocytic Leukemia). The experiment in a line: Cell viability analysis, leukemia HL-60. The conditions noted are these: Homo sapiens.
The test system of assay [12] is TSGH-8301 (Urinary Bladder Carcinoma). The experiment in a line: Cell viability analysis, bladder cancer TSGH-8301. Conditions: Homo sapiens.
Setting [13] is: NCI-H1650, 72 h, read-out: cell viability (survival rate), H1650, drug 10 μM, 72 hours, WST-1, OD450 nm.
The mark [14] stands for this setting: A549, 72 h, read-out: cell viability (survival rate), A549, drug 10 μM, 72 hours, WST-1, OD450 nm.
Setting [15] is: 72 h, read-out: cell viability (survival rate), AGS, drug 10 μM, 72 hours, WST-1, OD450 nm.
Setting [16] is: MKN-45, 72 h, read-out: cell viability (survival rate), MKN-45, drug 10 μM, 72 hours, WST-1, OD450 nm.
The mark [17] stands for this setting: HepG2, 72 h, read-out: cell viability (survival rate), HepG2, drug 10 μM, 72 hours, WST-1, OD450 nm.
[18] abbreviates: A-375, 72 h, read-out: cell viability (survival rate), A375, drug 10 μM, 72 hours, WST-1, OD450 nm.
Where [19] appears, read: 72 h, read-out: cell viability (survival rate), HeLa, drug 10 μM, 72 hours, WST-1, OD450 nm.
Where [20] appears, read: 72 h, read-out: cell viability (survival rate), PC3, drug 10 μM, 72 hours, WST-1, OD450 nm.
Setting [21] is: read-out: cell viability (survival rate), MCF7, drug 10 μM, 72 hours, WST-1, OD450 nm.
The mark [22] stands for this setting: HL-60, 72 h, read-out: cell viability (survival rate), HL-60, drug 10 μM, 72 hours, WST-1, OD450 nm.
Where [23] appears, read: 72 h, read-out: cell viability (survival rate), TSGH, drug 10 μM, 72 hours, WST-1, OD450 nm.

Usually viability stands for a read-out of living cells in per cent, often relative to untreated cells.

Consider `CN1[C@@H]2CC[C@H]1C[C@@H](OC(c1ccccc1)c1ccccc1)C2` [Benztropine mesylate], for which the “inhibition effect on different cancer cell lines” value in the assay with cancer cell lines was “significant inhibition effect”. For the same compound, the viability at 10 µM in assay [1] (setting [13]) came to 91.7%; in assay [2] (setting [14]), 68.2%; in [3] (setting [15]), 83%; in [4] (setting [16]), 89.4%; in assay [5] (setting [17]), 86%; in assay [6], 81.4%. Besides, the viability at 10 µM in [7] (setting [18]) was determined as 67.5%; in assay [8] (setting [19]), 95.3%; in [9] (setting [20]), 75.3%; in assay [10] (setting [21]), 63.3%; in [11] (setting [22]), 81.1%.
Consider `O=C(N[C@H](CO)[C@H](O)c1ccc([N+](=O)[O-])cc1)C(Cl)Cl` [Chloramphenicol (Chloromycetin), Chloramphenicol], for which the “inhibition effect on different cancer cell lines” value in the assay with cancer cell lines is given as “significant inhibition effect”. For the same compound, the viability at 10 µM was determined as 75.6% in assay [1] (setting [13]); 96.3% in [2] (setting [14]); 90.6% in [3] (setting [15]); 66.8% in assay [4] (setting [16]); 93.6% in assay [5] (setting [17]); 114% in [7] (setting [18]). Moreover, the viability at 10 µM in [8] (setting [19]) turned out to be 85%; in assay [9] (setting [20]), 120%; in [12] (setting [23]), 83.5%; in assay [10] (setting [21]), 89.1%; in assay [11] (setting [22]), 105%.
For `CC(C)(C)C(=O)C(Oc1ccc(Cl)cc1)n1ccnc1` (centres unmarked) [Climbazole], the “inhibition effect on different cancer cell lines” value with cancer cell lines is “significant inhibition effect”. Besides, the viability at 10 µM was 84.2% in assay [1] (NCI-H1650, drug 10 μM, 72 hours, WST-1, OD450 nm, read-out: cell viability (survival rate), H1650); 72.7% in assay [2] (A549, drug 10 μM, 72 hours, WST-1, OD450 nm, read-out: cell viability (survival rate), A549); 93.3% in assay [3] (drug 10 μM, 72 hours, WST-1, OD450 nm, read-out: cell viability (survival rate), AGS); 97.7% in assay [4] (MKN-45, drug 10 μM, 72 hours, WST-1, OD450 nm, read-out: cell viability (survival rate), MKN-45); 94.4% in assay [5] (HepG2, drug 10 μM, 72 hours, WST-1, OD450 nm, read-out: cell viability (survival rate), HepG2); 70.6% in assay [7] (A-375, drug 10 μM, 72 hours, WST-1, OD450 nm, read-out: cell viability (survival rate), A375). Further, the viability at 10 µM came to 94% in assay [8] (drug 10 μM, 72 hours, WST-1, OD450 nm, read-out: cell viability (survival rate), HeLa); 99.6% in [9] (drug 10 μM, 72 hours, WST-1, OD450 nm, read-out: cell viability (survival rate), PC3); 102% in [12] (drug 10 μM, 72 hours, WST-1, OD450 nm, read-out: cell viability (survival rate), TSGH); 111% in assay [11] (HL-60, drug 10 μM, 72 hours, WST-1, OD450 nm, read-out: cell viability (survival rate), HL-60).
Turning to `CC[C@H]1OC(=O)[C@H](C)[C@@H](O[C@H]2C[C@@](C)(OC)[C@@H](O)[C@H](C)O2)[C@H](C)[C@@H](O[C@@H]2O[C@H](C)C[C@H](N(C)C)[C@H]2O)[C@](C)(O)C[C@@H](C)C(=O)[C@H](C)[C@@H](O)[C@]1(C)O` [Erythromycin (E-Mycin), Erythromycin], in the assay on cancer cell lines, the “inhibition effect on different cancer cell lines” value is on record as “significant inhibition effect”. Moreover, the viability at 10 µM in [1] (setting [13]) was 90.4%; in assay [2] (setting [14]), 63.8%; in [3] (setting [15]), 27.7%; in assay [4] (setting [16]), 53.2%; in assay [5] (setting [17]), 93.5%; in [6], 85.5%. In addition, the viability at 10 µM stood at 93% in assay [8] (setting [19]); 86% in assay [9] (setting [20]); 42.6% in assay [12] (setting [23]); 45.2% in [10] (setting [21]); 111% in assay [11] (setting [22]).
For `OC(Cn1cncn1)(Cn1cncn1)c1ccc(F)cc1F` [Fluconazole], in the assay with cancer cell lines, the “inhibition effect on different cancer cell lines” value is recorded as “significant inhibition effect”. The viability at 10 µM is 45.3% in assay [1] (setting [13]); 125% in assay [2] (setting [14]); 50.2% in assay [3] (setting [15]); 76.2% in assay [4] (setting [16]); 97.4% in assay [5] (setting [17]); 102% in assay [6]. The viability at 10 µM is 76.9% in [7] (setting [18]); 79.2% in assay [8] (setting [19]); 97.7% in assay [9] (setting [20]); 66.1% in assay [12] (setting [23]); 106% in assay [11] (setting [22]).
Turning to `O=c1[nH]c(=O)n([C@H]2C[C@H](O)[C@@H](CO)O2)cc1I` [Idoxuridine], in the assay with cancer cell lines, the “inhibition effect on different cancer cell lines” value was “significant inhibition effect”. Moreover, the viability at 10 µM in assay [1] (setting [13]) turned out to be 82.8%; in assay [2] (setting [14]), 58.5%; in assay [3] (setting [15]) it was 68.7%; in assay [4] (setting [16]) it was 80.8%; in [5] (setting [17]), 122%; in assay [6] it was 72.7%. Also, the viability at 10 µM in [7] (setting [18]) worked out at 81.5%; in [9] (setting [20]) it was 57.8%; in [12] (setting [23]), 88%; in assay [10] (setting [21]), 47.3%; in [11] (setting [22]), 96.1%.
For `CCCN1CCCC[C@H]1C(=O)Nc1c(C)cccc1C` [Ropivacaine HCl], the “inhibition effect on different cancer cell lines” value in the assay with cancer cell lines was “significant inhibition effect”. Besides, the viability at 10 µM was 92.4% in [1] (setting [13]); 118% in assay [2] (setting [14]); 64.3% in [3] (setting [15]); 132% in assay [4] (setting [16]); 98% in assay [5] (setting [17]); 89.7% in assay [6]. Also, the viability at 10 µM was 71.2% in assay [7] (setting [18]); 126% in [8] (setting [19]); 110% in [9] (setting [20]); 99.2% in assay [10] (setting [21]); 81.3% in [11] (setting [22]).
As to `Cc1cc(-n2c(=O)[nH]c(=O)n(C)c2=O)ccc1Oc1ccc(SC(F)(F)F)cc1` [toltrazuril], the “inhibition effect on different cancer cell lines” value with cancer cell lines is recorded as “significant inhibition effect”. In addition, the viability at 10 µM was 70.9% in assay [1] (NCI-H1650, 72 h, drug 10 μM, 72 hours, WST-1, OD450 nm, read-out: cell viability (survival rate), H1650); 61.2% in [2] (A549, 72 h, drug 10 μM, 72 hours, WST-1, OD450 nm, read-out: cell viability (survival rate), A549); 26.3% in assay [3] (72 h, drug 10 μM, 72 hours, WST-1, OD450 nm, read-out: cell viability (survival rate), AGS); 62.2% in assay [5] (HepG2, 72 h, drug 10 μM, 72 hours, WST-1, OD450 nm, read-out: cell viability (survival rate), HepG2); 61.9% in [6]; 27.7% in assay [7] (A-375, 72 h, drug 10 μM, 72 hours, WST-1, OD450 nm, read-out: cell viability (survival rate), A375). Further, the viability at 10 µM was 70.1% in [8] (72 h, drug 10 μM, 72 hours, WST-1, OD450 nm, read-out: cell viability (survival rate), HeLa); 30.3% in assay [9] (72 h, drug 10 μM, 72 hours, WST-1, OD450 nm, read-out: cell viability (survival rate), PC3); 34.8% in assay [12] (72 h, drug 10 μM, 72 hours, WST-1, OD450 nm, read-out: cell viability (survival rate), TSGH); 67.4% in assay [10] (drug 10 μM, 72 hours, WST-1, OD450 nm, read-out: cell viability (survival rate), MCF7); 73.1% in [11] (HL-60, 72 h, drug 10 μM, 72 hours, WST-1, OD450 nm, read-out: cell viability (survival rate), HL-60).
